# Results: patent US20110212106A1, “HIV-1 NE[…] USES THEREOF” (priority 2010, published 2011)
# Where “and” joins values, the source holds several entries; their conditions need not be identical. Equal entries are not always repeated. Where two headings read alike, the source gives them in different places.
# Experiments:
# [1] = system: HIV-1 pseudoviruses in HOS-CD4-CCR5 cells; details: for IC50: Table 7, HOS
# Procedure: To measure the neutralization activity of the isolated mAbs, luciferase-encoding virions pseudotyped with the desired HIV-1 Env proteins were used in a single-cycle infectivity assay, as previously described (Gorny M K, et al. (2002) J Virol 76: 9035-9045). Briefly, appropriate dilutions of the virion-containing culture supernatants were pre-incubated at 37° C. for 1 h with mAbs at various concentrations. The virus-mAb mixtures were added to HOS-CD4-CCR5 cells and incubated for 3 days at 37° C. A similar protocol was used for supernatants screening using TZM-bl cells (Li M, et al. (2006) J Virol 80: 11776-11790). The cells were then lysed with Britelite reagent (Perkin-Elmer) and the relative light units in the cell lysates were determined on a luminometer microplate reader (Veritas, Turner Biosystems). The 50% inhibitory dose (IC50) was defined as the sample concentration at which relative luminescence units were reduced 50% compared to virus control wells.
# The neutralizing activity of the mAbs was measured using 20 pseudotyped HIV-1 primary isolate envs characterized by different sensitivity to neutralization (Li M, et al. (2005) J Virol 79: 10108-10125; Li M, et al. (2006) J Virol 80: 11776-11790). The mAbs were tested at a fixed concentration (100 μg/ml) in the luciferase based neutralization assay using HOS-CD4.R5 as target cells.
# [2] = system: primary replication competent HIV-1 isolates
# [3] = system: HIV-1 pseudoviruses in TZM-bl cells; details: for IC50: Table 7, TZMbl
# gp120 binding to sCD4 = details: inhibition of sCD4 binding
# Procedure: Shown is mean±SD of triplicates.
# The ability of mAbs to inhibit binding of sCD4 to gp120 or gp140 was evaluated by ELISA. Serial dilutions of mAbs were pre-incubated with gp120 (or gp140) and added to plates pre-coated with sCD4. After 1 h plates were washed and incubated with sheep polyclonal antibody D7324 (Aalto Bio-Reagents) followed by washing, incubation with AP-conjugated rabbit anti-sheep IgG antibody (Abcam, Cambridge, UK), extensive washing and detection using p-NPP (Sigma) as substrate.
substance,measurement,setting,value
enfuvirtide,IC50,"[1]; 96ZM651.2, clade C",0.6 nM
same,IC50,"[1]; 263-8, clade AG",0.04 nM
same,IC50,"[1]; AC10.0.29, clade B",1.2 nM
same,IC50,"[1]; BaL.26, clade B",1.4 nM
same,IC50,"[1]; CAP210.2.00.E8, clade C",6 nM
same,IC50,"[1]; CH064.20, clade BC",0.7 nM
same,IC50,"[1]; CH110.2, clade BC",0.335 nM
same,IC50,"[1]; CH181.12, clade BC",1.8 nM
same,IC50,"[1]; Du151.2, clade C",0.6 nM
same,IC50,"[1]; JR-FL, clade B",1.9 nM
same,IC50,"[1]; MW965.26, clade C",0.6 nM
same,IC50,"[1]; Q168.a2, clade AD",5.7 nM
same,IC50,"[1]; Q461.e2, clade A",1.6 nM
same,IC50,"[1]; Q769.d22, clade A",1.7 nM
same,IC50,"[1]; RHPA4259.7, clade B",1.9 nM
same,IC50,"[1]; SF162, clade B",6.8 nM
same,IC50,"[1]; SS1196.1, clade B",0.9 nM
same,IC50,"[1]; T257-31, clade AG",2.76 nM
same,IC50,"[1]; ZM53M.PB12, clade C",6.1 nM
same,IC50,"[1]; ZM214M.PL15, clade C",4.42 nM
same,IC50,"[2]; 92BR025, clade C",< 16 nM
same,IC90,"[2]; 92BR025, clade C",29 nM
same,IC50,"[2]; 92RW009, clade A",< 16 nM
same,IC90,"[2]; 92RW009, clade A",44 nM
same,IC50,"[2]; 92UG024, clade D",16 nM
same,IC90,"[2]; 92UG024, clade D",48 nM
same,IC50,"[2]; J213, clade B",35 nM
same,IC90,"[2]; J213, clade B",192 nM
same,IC50,"[2]; MN(P), clade B",39 nM
same,IC90,"[2]; MN(P), clade B",63 nM
same,IC50,"[2]; QH0692, clade B",78 nM
same,IC90,"[2]; QH0692, clade B",207 nM
same,IC50,"[2]; VI 191, clade A",32 nM
same,IC90,"[2]; VI 191, clade A",56 nM
same,IC50,"[3]; 96ZM651.2, clade C",8.9 nM
same,IC50,"[3]; 263-8, clade AG",< 2.23 nM
same,IC50,"[3]; AC10.0.29, clade B",6.68 nM
same,IC50,"[3]; BaL.26, clade B",6.68 nM
same,IC50,"[3]; CAP210.2.00.E8, clade C",13.4 nM
same,IC50,"[3]; CH064.20, clade BC",< 2.23 nM
same,IC50,"[3]; CH110.2, clade BC",< 2.23 nM
same,IC50,"[3]; CH181.12, clade BC",< 2.23 nM
same,IC50,"[3]; Du151.2, clade C",< 2.23 nM
same,IC50,"[3]; Q168.a2, clade AD",8.9 nM
same,IC50,"[3]; Q461.e2, clade A",6.68 nM
same,IC50,"[3]; Q769.d22, clade A",20 nM
same,IC50,"[3]; RHPA4259.7, clade B",8.9 nM
same,IC50,"[3]; SF162, clade B",20 nM
same,IC50,"[3]; SS1196.1, clade B",4.45 nM
same,IC50,"[3]; T257-31, clade AG",< 2.23 nM
same,IC50,"[3]; ZM53M.PB12, clade C",< 2.23 nM
same,IC50,"[3]; ZM214M.PL15, clade C",17.8 nM
"HJ16: human mAb from clade C donor, CD4 binding site proximal epitope; VH SEQ ID NO: 13, VL SEQ ID NO: 14",Neutralization HOS (number of isolates neutralized),"[1]; HOS-based assay, isolates neutralized/isolates tested",10/20
same,pseudoviruses neutralized out of the 20 pseudoviruses,[1]; mAb at fixed concentration 100 μg/ml,10
same,Percentage of HIV-1 isolates neutralized,[3]; All (92),36%
same,Neutralization TZM-bl (number of isolates neutralized),"[3]; TZM-bl based assay, isolates neutralized/isolates tested",33/92
same,Percentage of HIV-1 isolates neutralized,[3]; Tier 1 (10),10%
same,Percentage of HIV-1 isolates neutralized,"[3]; Tier 1 + Tier 2, Clade A (8)",25%
same,Percentage of HIV-1 isolates neutralized,"[3]; Tier 1 + Tier 2, Clade AD (1)",100%
same,Percentage of HIV-1 isolates neutralized,"[3]; Tier 1 + Tier 2, Clade AG (16)",50%
same,Percentage of HIV-1 isolates neutralized,"[3]; Tier 1 + Tier 2, Clade B (29)",34%
same,Percentage of HIV-1 isolates neutralized,"[3]; Tier 1 + Tier 2, Clade BC (11)",45%
same,Percentage of HIV-1 isolates neutralized,"[3]; Tier 1 + Tier 2, Clade C (26)",27%
same,Percentage of HIV-1 isolates neutralized,"[3]; Tier 1 + Tier 2, Clade G (1)",0%
same,Percentage of HIV-1 isolates neutralized,[3]; Tier 2 (82),39%
same,Percentage of HIV-1 isolates neutralized,"[3]; Tier 2, Clade A (5)",20%
same,Percentage of HIV-1 isolates neutralized,"[3]; Tier 2, Clade AD (1)",100%
same,Percentage of HIV-1 isolates neutralized,"[3]; Tier 2, Clade AG (16)",50%
same,Percentage of HIV-1 isolates neutralized,"[3]; Tier 2, Clade B (24)",42%
same,Percentage of HIV-1 isolates neutralized,"[3]; Tier 2, Clade BC (11)",45%
same,Percentage of HIV-1 isolates neutralized,"[3]; Tier 2, Clade C (24)",29%
same,Percentage of HIV-1 isolates neutralized,"[3]; Tier 2, Clade G (1)",0%
same,Tier-2 isolates neutralized by HJ16 that were not neutralized by b12,[3]; of 32 neutralized,22/32
same,Tier-1 viruses neutralized,[3]; panel of 10 Tier-1 isolates,1 out of 10 and 1/10
same,Tier-2 pseudoviruses neutralized,[3]; panel of 82 Tier-2 isolates,32/82
same,plateau of heterologous inhibition in cross-competition of HJ16 and b12,gp120; binding to immobilized gp120,approximately 80%
same,Cross-competition with: 2G12,gp120; inhibition of biotinylated mAb 2G12 binding to immobilized gp120,"− (−, <50% inhibition)"
same,Cross-competition with: HGA9,gp120; inhibition of biotinylated mAb HGA9 binding to immobilized gp120,"− (−, <50% inhibition)"
same,Cross-competition with: HJ16,gp120; inhibition of biotinylated mAb HJ16 binding to immobilized gp120,"+ (+,90-100% inhibition)"
same,Cross-competition with: sCD4,gp120 binding to sCD4,"+ (+,90-100% inhibition)"
